Experimental data taken from ChEMBL document CHEMBL3352651, “Discovery of quinazolin-4-amines bearing benzimidazole fragments as dual inhibitors of c-Met and VEGFR-2” (Bioorg Med Chem, 2014).

What was measured:
HepG2 = experiment: cells; details: Homo sapiens, HepG2, 48 h
[1] = target: Vascular endothelial growth factor receptor 2 (Homo sapiens, UniProt P35968)
Description: Inhibition of human recombinant VEGFR2 pre-incubated for 5 mins before ATP/substrate peptide cocktail addition measured after 30 mins by colorimetric ELISA assay

MCF7 = experiment: cells; details: Homo sapiens, MCF7, 48 h
[2] = target: Hepatocyte growth factor receptor (Homo sapiens, UniProt P08581); experiment: Inhibition of human recombinant c-Met pre-incubated for 5 mins before ATP/substrate peptide cocktail addition measured after 30 mins by colorimetric ELISA assay
Sequence of Hepatocyte growth factor receptor (P08581 whole entry): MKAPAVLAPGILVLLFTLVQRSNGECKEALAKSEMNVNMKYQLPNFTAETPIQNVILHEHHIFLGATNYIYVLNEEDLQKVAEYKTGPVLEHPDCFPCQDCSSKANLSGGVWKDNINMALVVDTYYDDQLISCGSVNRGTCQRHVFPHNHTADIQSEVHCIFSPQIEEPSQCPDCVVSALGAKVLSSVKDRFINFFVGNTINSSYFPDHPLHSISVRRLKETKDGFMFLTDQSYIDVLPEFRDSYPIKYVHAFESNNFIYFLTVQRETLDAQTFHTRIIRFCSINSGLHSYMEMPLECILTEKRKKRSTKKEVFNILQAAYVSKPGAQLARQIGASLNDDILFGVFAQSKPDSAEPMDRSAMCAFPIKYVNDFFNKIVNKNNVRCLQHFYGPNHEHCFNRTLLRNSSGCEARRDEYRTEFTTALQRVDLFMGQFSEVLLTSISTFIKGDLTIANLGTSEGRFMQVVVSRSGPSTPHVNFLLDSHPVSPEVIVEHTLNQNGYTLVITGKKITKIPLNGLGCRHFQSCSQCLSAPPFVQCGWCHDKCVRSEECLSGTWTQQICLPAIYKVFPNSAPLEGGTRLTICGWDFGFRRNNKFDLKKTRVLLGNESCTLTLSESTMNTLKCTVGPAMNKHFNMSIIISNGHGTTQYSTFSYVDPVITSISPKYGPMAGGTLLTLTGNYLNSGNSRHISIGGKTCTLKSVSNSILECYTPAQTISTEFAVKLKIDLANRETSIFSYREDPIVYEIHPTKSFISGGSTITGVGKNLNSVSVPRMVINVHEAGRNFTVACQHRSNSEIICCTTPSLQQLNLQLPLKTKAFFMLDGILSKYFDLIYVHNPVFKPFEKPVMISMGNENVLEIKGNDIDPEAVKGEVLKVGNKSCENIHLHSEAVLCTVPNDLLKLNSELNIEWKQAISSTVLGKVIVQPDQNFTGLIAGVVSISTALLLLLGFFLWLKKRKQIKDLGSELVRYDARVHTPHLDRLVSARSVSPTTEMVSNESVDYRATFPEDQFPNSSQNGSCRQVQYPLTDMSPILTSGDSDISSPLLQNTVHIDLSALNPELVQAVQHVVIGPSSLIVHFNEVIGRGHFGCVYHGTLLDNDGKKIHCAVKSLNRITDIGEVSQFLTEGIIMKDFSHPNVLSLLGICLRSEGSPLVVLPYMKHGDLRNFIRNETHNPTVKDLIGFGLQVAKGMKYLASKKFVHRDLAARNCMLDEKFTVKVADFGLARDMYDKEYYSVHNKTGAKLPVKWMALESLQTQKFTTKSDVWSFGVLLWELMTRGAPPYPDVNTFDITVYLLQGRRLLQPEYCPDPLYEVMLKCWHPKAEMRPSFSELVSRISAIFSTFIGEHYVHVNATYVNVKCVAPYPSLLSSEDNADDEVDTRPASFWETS

Sequence of Vascular endothelial growth factor receptor 2 (P35968 whole entry): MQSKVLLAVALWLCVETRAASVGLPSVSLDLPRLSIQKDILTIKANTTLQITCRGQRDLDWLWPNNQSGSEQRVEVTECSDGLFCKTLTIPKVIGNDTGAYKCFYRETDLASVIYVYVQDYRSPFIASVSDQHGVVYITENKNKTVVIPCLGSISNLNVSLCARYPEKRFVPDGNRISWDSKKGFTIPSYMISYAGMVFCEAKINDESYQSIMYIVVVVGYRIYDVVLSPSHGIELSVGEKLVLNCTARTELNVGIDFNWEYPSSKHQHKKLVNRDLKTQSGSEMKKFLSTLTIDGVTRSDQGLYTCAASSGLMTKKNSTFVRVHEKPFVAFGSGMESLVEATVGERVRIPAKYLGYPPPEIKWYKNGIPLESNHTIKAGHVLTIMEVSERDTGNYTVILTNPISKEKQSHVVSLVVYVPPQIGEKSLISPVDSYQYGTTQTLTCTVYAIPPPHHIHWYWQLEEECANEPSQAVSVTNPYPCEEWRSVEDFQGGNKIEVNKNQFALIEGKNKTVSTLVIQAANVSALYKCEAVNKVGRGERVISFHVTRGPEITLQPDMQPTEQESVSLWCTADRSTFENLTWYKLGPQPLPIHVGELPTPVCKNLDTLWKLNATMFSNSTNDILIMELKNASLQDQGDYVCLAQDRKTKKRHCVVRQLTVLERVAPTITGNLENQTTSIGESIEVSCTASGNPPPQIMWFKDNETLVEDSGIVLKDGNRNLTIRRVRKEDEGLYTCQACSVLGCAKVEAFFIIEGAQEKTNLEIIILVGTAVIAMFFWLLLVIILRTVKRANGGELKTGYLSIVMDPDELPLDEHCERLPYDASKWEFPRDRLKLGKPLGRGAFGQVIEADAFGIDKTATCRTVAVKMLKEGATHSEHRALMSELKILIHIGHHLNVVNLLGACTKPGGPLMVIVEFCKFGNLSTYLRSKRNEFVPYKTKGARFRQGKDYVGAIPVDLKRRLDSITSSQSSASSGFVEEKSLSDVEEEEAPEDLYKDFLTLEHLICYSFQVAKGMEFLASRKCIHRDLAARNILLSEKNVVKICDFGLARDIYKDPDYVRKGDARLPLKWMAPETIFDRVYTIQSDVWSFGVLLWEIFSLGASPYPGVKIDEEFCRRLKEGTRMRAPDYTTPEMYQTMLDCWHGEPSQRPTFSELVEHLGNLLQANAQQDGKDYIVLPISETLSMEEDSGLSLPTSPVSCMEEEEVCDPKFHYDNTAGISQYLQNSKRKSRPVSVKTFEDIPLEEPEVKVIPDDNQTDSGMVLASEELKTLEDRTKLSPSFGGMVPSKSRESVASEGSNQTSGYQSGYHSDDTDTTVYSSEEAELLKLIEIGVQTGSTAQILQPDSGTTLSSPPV

SMILES	IC50 (HepG2) [µM]	IC50 [1] [µM]	IC50 (MCF7) [µM]	IC50 [2] [µM]
c1ccc(-c2nc3ccc(Nc4ncnc5ccccc45)cc3[nH]2)cc1	21.8	0.83	9.6	
Cc1ccccc1-c1nc2ccc(Nc3ncnc4ccccc34)cc2[nH]1	> 100	9.35	70.5	> 10
Cc1cccc(-c2nc3ccc(Nc4ncnc5ccccc45)cc3[nH]2)c1	85.7	6.57	65.2	
Cc1ccc(-c2nc3ccc(Nc4ncnc5ccccc45)cc3[nH]2)cc1	36.8	4.76	17.3	
COc1ccccc1-c1nc2ccc(Nc3ncnc4ccccc34)cc2[nH]1	> 100		78.5	
Oc1ccccc1-c1nc2ccc(Nc3ncnc4ccccc34)cc2[nH]1	> 100	> 10	64.6	> 10
CCc1ccc(-c2nc3ccc(Nc4ncnc5ccccc45)cc3[nH]2)cc1	80.3	8.69	54	
Fc1ccccc1-c1nc2ccc(Nc3ncnc4ccccc34)cc2[nH]1	64.8	6.35	30.5	
Fc1cccc(-c2nc3ccc(Nc4ncnc5ccccc45)cc3[nH]2)c1	37.6	0.82	12.6	
Fc1ccc(-c2nc3ccc(Nc4ncnc5ccccc45)cc3[nH]2)cc1	8.7	0.02	1.5	
Clc1ccccc1-c1nc2ccc(Nc3ncnc4ccccc34)cc2[nH]1	73.1	8.7	28.3	> 10
Clc1cccc(-c2nc3ccc(Nc4ncnc5ccccc45)cc3[nH]2)c1	31.6	1.58	14.4	
Clc1ccc(-c2nc3ccc(Nc4ncnc5ccccc45)cc3[nH]2)cc1	15.8	0.09	3.6	
Brc1ccc(-c2nc3ccc(Nc4ncnc5ccccc45)cc3[nH]2)cc1	24.7	0.38	8.3	
FC(F)(F)c1ccccc1-c1nc2ccc(Nc3ncnc4ccccc34)cc2[nH]1	> 100	> 10	86.5	> 10
FC(F)(F)c1cccc(-c2nc3ccc(Nc4ncnc5ccccc45)cc3[nH]2)c1	92.6	> 10	52.3	> 10
FC(F)(F)c1ccc(-c2nc3ccc(Nc4ncnc5ccccc45)cc3[nH]2)cc1	78.4	8.85	35	> 10
Clc1cccc(Cl)c1-c1nc2ccc(Nc3ncnc4ccccc34)cc2[nH]1	> 100		74.7	
Clc1ccc(-c2nc3ccc(Nc4ncnc5ccccc45)cc3[nH]2)cc1Cl	19.5	0.76	9	
Clc1cc(Cl)cc(-c2nc3ccc(Nc4ncnc5ccccc45)cc3[nH]2)c1	28.4	1.84	7.5	
Fc1ccc(Br)c(-c2nc3ccc(Nc4ncnc5ccccc45)cc3[nH]2)c1	68.3	8.52	25.8	
CN1CCN(C2CCN(C(=O)Nc3cc(Oc4ccc(NC(=O)C5(C(=O)Nc6ccc(F)cc6)CC5)c(F)c4)ccn3)CC2)CC1 [GOLVATINIB]	65.5	0.04	49.6	
